Measured values reported in US20080200551A1, “Flourene Derivative” (priority 2004, published 2008).
pIC50, pKi: −log10 of the molar value. Where a name gives a salt, the structure may show the parent alone.

Legend:
human 5-HT7 receptor = human 5-HT7 receptor (Homo sapiens, UniProt P34969); experiment: Binding test of 5-HT7 receptor; conditions: [3H]5-HT, human 5-HT7 expressing CHO cell membrane
Protocol: (2) Binding Test of 5-HT7 Receptor
(i) Preparation of Membrane Preparation
CHO cell was used as the gene transferring cell.
Cultured CHO cells expressing human 5-HT7 receptor were washed with PBS (−). The cells were scraped in the presence of PBS(−), and the cells were recovered by centrifugation (1,000 rpm, 10 min, 4° C.). They were homogenized using Polytron (PTA 10-TS) in the presence of 5 mM Tris-HCl (pH 7.4) buffer and centrifuged (40,000×g, 10 min, 4° C.). They were suspended using a homogenizer in the presence of 50 mM Tris-HCl (pH 7.4) buffer. They were subjected to centrifugation (40,000×g, 10 min, 4° C.), suspended in 50 mM Tris-HCl (pH 7.4) and stored at −80° C.
(ii) Receptor Binding Test
The compound was dissolved in 100% DMSO and diluted to respective concentrations. Nonspecific binding was defined as the binding quantity in the presence of 10 μM metergoline, and the result of subtracting the nonspecific binding quantity from the total binding quantity was defined as the specific binding quantity. This was mixed with 4 ml of 50 mM Tris-HCl buffer (pH 7.4) and filtered under a reduced pressure using a GF/B glass filter, and the filter was washed (4 ml×3) with the same buffer. The glass filter was soaked in 5 ml of a liquid scintillator (Aquasol-2) and the radioactivity was measured using a liquid scintillation counter.

5-HT6 receptor = 5-HT6 receptor (UniProt P50406); experiment: Affinity for other receptors: 5-HT6; format: binding
5-HT4 receptor = 5-HT4 receptor (UniProt O70528); experiment: Affinity for other receptors: 5-HT4; format: binding
α1 receptor = experiment: Affinity for other receptors: α1; format: binding
[1] = test system: protein leaked from the dural blood vessel caused by 5-HT; experiment: Preventive effect in guinea pig migraine model (leaked protein); format: in vivo; conditions: for leakage of the protein: 10 mg/kg or 30 mg/kg of oral administration
Protocol: (4) Preventive Effect in Guinea Pig Migraine Model
In this test system, migraine preventive effect was evaluated by measuring this leaked protein in the presence of a compound to be tested, and this was carried out by partially modifying the method described in Rachel A. Spokes and Vicki C. Middlefell, European Journal of Pharmacology (1995) 281, 75-79.
Hartley male guinea pig (250-350 g) was anesthetized by peritoneal administration (i.p.) of urethane (1.5 g/kg). By applying simple canulation to a saphena, 50 mg/kg of a fluorescent protein (FITC-BSA) was intravenously administered (i.v.) and 5 minutes thereafter, physiological saline or 1 μM of 5-HT was intravenously administered. By carrying out perfusion with physiological saline 15 minutes thereafter, blood was washed out. […] By detaching the skull, dura mater was took out and incubated at 37° C. for 16 hours in an Eppendorf tube in the presence of physiological saline of pH 11. Centrifugation was carried out, and the supernatant was dispensed into a plate. Fluorescence intensity was measured using a fluorescence plate reader (excitation wavelength 485 nm, […] 530 nm). By measuring dura mater weight, fluorescence intensity per mg dural protein was calculated.
Values of the fluorescence intensity measured at the time of the administration of each compound and at the time of no administration are shown in FIG. 1 to FIG. 4. […] The control indicates fluorescence intensity at the time of no addition of 5-HT, namely the reference value.

5-HT2B receptor = conditions: against 5-HT1A, 5-HT1B, 5-HT2A, 5-HT2C, 5-HT3, 5-HT6, 5-HT7, α1, M1 and D2 receptors; cited from earlier work

Sequence of human 5-HT7 receptor (P34969 1-432 limits assumed): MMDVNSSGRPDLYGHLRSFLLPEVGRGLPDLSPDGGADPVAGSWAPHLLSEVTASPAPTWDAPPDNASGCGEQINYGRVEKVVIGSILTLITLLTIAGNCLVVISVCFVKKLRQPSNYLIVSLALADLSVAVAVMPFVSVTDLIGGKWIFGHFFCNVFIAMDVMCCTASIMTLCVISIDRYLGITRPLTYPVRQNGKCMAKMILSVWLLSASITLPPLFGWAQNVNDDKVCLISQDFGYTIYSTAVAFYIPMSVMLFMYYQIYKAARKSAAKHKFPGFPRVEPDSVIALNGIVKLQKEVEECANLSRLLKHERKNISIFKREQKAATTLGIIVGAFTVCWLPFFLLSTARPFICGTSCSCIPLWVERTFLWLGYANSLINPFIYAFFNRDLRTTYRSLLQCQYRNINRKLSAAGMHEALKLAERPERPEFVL

| Compound | pKi (human 5-HT7 receptor) | leakage of the protein [1] | other results |
| --- | --- | --- | --- |
| CC1(O)c2cc(C(=O)N=C(N)N)ccc2-c2c(F)cccc21 (racemic) [Example 77, N-(diaminomethylene)-5-fluoro-9-hydroxy-9-methyl-9H-fluorene-2-carboxamide] | 6.51 to 9.40 |  |  |
| Cl.NC(N)=NC(=O)c1ccc2c(c1)C(O)c1ccccc1-2 (stereo not shown) [Example 3, N-(diaminomethylene)-9-hydroxy-9H-fluorene-2-carboxamide hydrochloride] |  |  | pIC50 (5-HT6 receptor): ≤ 6.00; pIC50 (5-HT4 receptor): ≤ 6.00; pIC50 (α1 receptor): ≤ 6.00; amount of the leaked protein ([1]; 3 mg/kg of intraperitoneal administration, FIG. 4): almost completely suppressed the amount of leaked protein |
| NC(N)=NC(=O)c1ccc2c(c1)C1(SCCS1)c1ccccc1-2 [Example 59] |  | almost completely suppressed leakage of the protein |  |
| CC1CCN(CC[C@H]2CCCN2S(=O)(=O)c2cccc(O)c2)CC1 [SB-269970, (R)-3-(2-(2-(4-methylpiperidin-1-yl)ethyl)pyrrolidine-1-sulfonyl)phenol, reference compound] |  |  | amount of the leaked protein versus reference value ([1]; dose increased from 3 mg/kg to 30 mg/kg, intraperitoneal, FIG. 2): did not reduced the amount of leaked protein to the reference value; amount of the leaked protein ([1]; from 10 mg/kg, intraperitoneal, FIG. 2): showed the effect |
| NC(N)=NC(=O)c1ccc2c(c1)C1(CC1)c1ccccc1-2 [Example 63, N-(diaminomethylene)spiro[cyclopropane-1,9′-fluorene]-2′-carboxamide] | 6.51 to 9.40 |  |  |
| NC(N)=NC(=O)c1ccc2c(c1)C1(CCCO1)c1ccccc1-2 (single isomer, unassigned) [Example 60a, N-(diaminomethylene)-4′,5′-dihydro-3′H-spiro[fluorene-9,2′-furan]-2-carboxamide (optically active substance A)] |  | almost completely suppressed leakage of the protein |  |
| CC(C)C1NC(=NC(=O)c2ccc3c(c2)C(O)c2ccccc2-3)NC1=O [Example 8, 9-hydroxy-N-[(2EZ,4S)-4-isopropyl-5-oxoimidazolin-2-ylidene-9H-fluorene-2-carboxamide hydrochloride] | 6.51 to 9.40 |  |  |
| CCC1(OC)c2ccccc2-c2ccc(C(=O)N=C(N)N)cc21 (stereo not shown) [Example 72, N-(diaminomethylene)-9-ethyl-9-methoxy-9H-fluorene-2-carboxamide] | 6.51 to 9.40 |  |  |
| CC1(O)c2cc(C(=O)N=C(N)N)ccc2-c2c(F)cccc21 (single isomer, unassigned) [Example 78a, N-(diaminomethylene)-5-fluoro-9-hydroxy-9-methyl-9H-fluorene-2-carboxamide (optically active substance A)] | 6.51 to 9.40 |  |  |
| COC1(C)c2cc(C(=O)N=C(N)N)ccc2-c2c(F)cccc21 (stereo not shown) [Example 87, N-(diaminomethylene)-5-fluoro-9-methoxy-9-methyl-9H-fluorene-2-carboxamide] | 6.51 to 9.40 |  |  |
| CC(C)c1cc(-c2ccc(F)c3ccccc23)nc(N)n1 [RS-127445, 2-amino-4-(4-fluoronaphth-1-yl)-6-isopropylpyrimidine, reference compound] |  |  | 5-HT2B receptor selectivity (5-HT2B receptor): 1000 times; amount of the leaked protein ([1]; 3 mg/kg, intraperitoneal, FIG. 1): showed an effect to reduce amount of the leaked protein; amount of the leaked protein versus reference value ([1]; dose increased from 3 mg/kg to 10 mg/kg, intraperitoneal, FIG. 1): did not reduced to the reference value |
| CC1(O)c2ccccc2-c2ccc(C(=O)N=C(N)N)cc21 (single isomer, unassigned) [Example 56a, N-(diaminomethylene)-9-hydroxy-9-methyl-9H-fluorene-2-carboxamide (optically active substance A)] | 6.51 to 9.40 | almost completely suppressed leakage of the protein |  |
| NC(N)=NC(=O)c1ccc2c(c1)C1(SCCS1)c1cccc(F)c1-2 [Example 85] |  | almost completely suppressed leakage of the protein |  |
| CC1(O)c2ccccc2-c2ccc(C(=O)N=C(N)N)cc21 (racemic) [Example 56, N-(diaminomethylene)-9-hydroxy-9-methyl-9H-fluorene-2-carboxamide] | 6.51 to 9.40 |  |  |
| NC(N)=NC(=O)c1ccc2c(c1)C1(CCCO1)c1ccccc1-2 (single isomer, unassigned) [Example 60b, N-(diaminomethylene)-4′,5′-dihydro-3′H-spiro[fluorene-9,2′-furan]-2-carboxamide (optically active substance B)] |  | almost completely suppressed leakage of the protein |  |
| NC(N)=NC(=O)c1ccc2c(c1)C(O)c1c(Cl)cccc1-2 (stereo not shown) [Example 38, 8-chloro-N-(diaminomethylene)-9-hydroxy-9H-fluorene-2-carboxamide] | 6.51 to 9.40 |  |  |
| COC1(C)c2ccccc2-c2ccc(C(=O)N=C(N)N)cc21 (stereo not shown) [Example 71, N-(diaminomethylene)-9-methoxy-9-methyl-9H-fluorene-2-carboxamide] | 6.51 to 9.40 |  |  |
| CC1(O)c2cc(C(=O)N=C(N)N)ccc2-c2c(F)cccc21 (single isomer, unassigned) [Example 78b, N-(diaminomethylene)-5-fluoro-9-hydroxy-9-methyl-9H-fluorene-2-carboxamide (optically active substance B)] |  | almost completely suppressed leakage of the protein |  |
